# In patent publication US11884675B2, “Heterocyclic compounds as triggering receptor expressed on myeloid cells 2 agonists and methods of use” (AMGEN INC., priority 2020, dated 2024):
# Molecular target: hTREM2 (Homo sapiens, UniProt Q9NZC2)
# Assay: TREM2 activity by cellular Syk phosphorylation (AlphaScreen/AlphaLISA) in TREM2/DAP12-HEK cells, used for Examples 1-305
# Type: cell-based
# Parameters: expressed in transfected cells
# Settings: HEK293 Cells
# Description: In vitro Measurement of Triggering Receptor Expressed on Myeloid Cells 2 activity using cellular phosphorylation of Spleen Tyrosine Kinase (“Syk”) Assays used for Examples 1-305
# Pharmacological measurements of TREM2 signaling through DAP12 were made with TREM2 and DAP12 overexpressing HEK293 cells stable cell lines that had been single-cell cloned (“TREM2/DAP12-HEK”). The readout of the TREM2 signaling utilized Perkin Elmer AlphaScreen/AlphaLISA technology monitoring the phosphorylation levels of the Syk kinase. TREM2/DAP12-HEK cell lines were cultured in DMEM-F12 (Corning 10-092-CM) supplemented with 1X Penicillin/Streptomycin (Corning 30-002-CI), 1X GlutaMAX (Gibco 35050-061), and 10% Fetal Bovine Serum (Life Technologies 10099) referred to as “HEK Culture Medium”. Suspensions of TREM2/DAP12-HEK cells were prepared in HEK Culture Medium and dispensed into 384-well poly-D-lysine coated microplates (Corning 354661) at a density of 20,000 cells/well using a Multidrop Combi peristaltic microplate dispenser (Thermo), 25 μL volume of cell suspension/well. Plates containing cells were then incubated for 20 hours in a humidified cell culture incubator at 37° C. with 5% CO2 (Thermo). After incubation, culture medium was removed from all wells of each microplate and replaced with 20 μL of “Assay Buffer” comprised of DMEM-F12 (Corning 10-092-CM) supplemented with 1X Penicillin/Streptomycin (Corning 30-002-CI) and 0.1% Pluronic F-68 Polyol (MP Biomedical 092750049) using a Bravo 384-well pipette-based liquid handling system (Agilent). Assay Buffer contained diluted test articles (in 1% final DMSO concentration for compounds) or 100 nM anti-human/mouse TREM2 antibody (R&D Systems MAB17291) as a positive control, or 100 nM or rat IgG2B isotype Ab as a negative control (R&D Systems MAB0061). The plates were incubated with test articles and controls for 45 minutes at room temperature and then the medium was aspirated/removed from each well of the plates. A Multidrop Combi peristaltic liquid handler (Thermo) was used to dispense 15 μL/well of “Cell Lysis Immunoassay Buffer”. The Cell Lysis Immunoassay Buffer contained M-PER Mammalian Protein Extraction Reagent (Pierce/ThermoFisher 78505), 1X Halt Phosphatase Inhibitor Cocktail (ThermoFisher #78427), 0.1875 nM anti-phospho-Syk (Tyr525/526) (C87C1) rabbit mAb (Cell Signaling Technologies catalog #2710), and 1.5 nM biotinylated Mouse anti-human Syk (4D10) antibody (BD Biosciences, catalog #624008). Plates were incubated for 1 hour at room temperature after the addition of the Cell Lysis Immunoassay Buffer. The Multidrop Combi liquid handler was used to dispense 15 μL of AlphaScreen Acceptor Bead Solution containing 7.5 μg/mL anti-rabbit IgG (Fc specific) AlphaLISA Acceptor Beads (Perkin Elmer AL104R) in 1X Immunoassay buffer (Perkin Elmer AL000F) to each well of the microplates. The plates were incubated for 2 hours at room temperature. Following the incubation with the AlphaLISA Acceptor Bead Solution, a Multidrop Combi liquid handler (Thermo) was used to dispense 15 μL of AlphaScreen Donor Bead Solution containing 30 μg/mL of AlphaScreen Streptavidin Donor beads (Perkin Elmer 6760002B) in 1X Immunoassay buffer (Perkin Elmer AL000F) to each well of the microplates. Microplates were incubated for 2 hours protected from light sources as the AlphaScreen reagents are light sensitive. Once the final incubation was completed, an AlphaScreen signal was acquired from the donor and acceptor beads using an Envision high throughput multi-modal microplate reader (Perkin Elmer) calibrated to the plate type with the AlphaScreen mirror and filter-set in 384-well mode, 680 nanometer excitation wavelength. The total measurement time per well was 550 milliseconds with a 180 millisecond excitation time. […]
# Chain of hTREM2 (Q9NZC2 19-230): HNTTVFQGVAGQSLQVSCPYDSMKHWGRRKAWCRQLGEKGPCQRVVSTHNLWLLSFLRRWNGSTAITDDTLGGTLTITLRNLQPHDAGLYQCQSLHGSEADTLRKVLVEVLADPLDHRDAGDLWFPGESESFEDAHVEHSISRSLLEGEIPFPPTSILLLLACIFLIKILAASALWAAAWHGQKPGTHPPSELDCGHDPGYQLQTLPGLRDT
# Chain of hTREM2 (O43914 22-113 partner): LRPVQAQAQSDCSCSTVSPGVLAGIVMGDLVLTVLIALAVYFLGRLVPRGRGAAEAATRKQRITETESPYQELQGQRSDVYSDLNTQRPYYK
EC50 [nM],hTREM2 Emax,SMILES
≤ 50,+++ (Emax>150 and ≤250),"Cc1ccc(-c2nc(N3CCO[C@@H](c4cnn(C5CC5)c4)C3)nc3nc(C)c(C)nc23)c(F)c1 [Example 38, 2-((2S)-2-(1-cyclopropyl-1H-pyrazol-4-yl)-4-morpholinyl)-4-(2-fluoro-4-methylphenyl)-6,7-dimethylpteridine]"
3000 to 100000,++ (Emax>100 and ≤150),"Cc1nc2nc(N3CCO[C@@H](c4cnn(C)c4)C3)nc(N3CCC(F)(F)C3)c2nc1C [Example 71, 4-(3,3-difluoro-1-pyrrolidinyl)-6,7-dimethyl-2-((2S)-2-(1-methyl-1H-pyrazol-4-yl)-4-morpholinyl)pteridine]"
50 to 500,++ (Emax>100 and ≤150),"Cc1nc2nc(N3CCO[C@@H](c4cnn(C)c4)C3)nc([C@@H]3CCC(C)(C)C3)c2nc1C [Example 303, (S)-4-(4-((R)-3,3-dimethylcyclopentyl)-6,7-dimethylpteridin-2-yl)-2-(1-methyl-1H-pyrazol-4-yl)morpholine]"
≤ 50,+++ (Emax>150 and ≤250),"Cc1ccc2c(-c3ccc(Cl)cc3F)nc(N3CCO[C@@H](c4cnn(C)c4)C3)nc2n1 [Example 84, 4-(4-chloro-2-fluorophenyl)-7-methyl-2-((2S)-2-(1-methyl-1H-pyrazol-4-yl)-4-morpholinyl)pyrido[2,3-d]pyrimidine]"
≤ 50,+++ (Emax>150 and ≤250),"Cc1cc([C@H]2CN(c3nc(-c4ccc(Cl)cc4F)c4ncc(C)nc4n3)CCO2)ccn1 [Example 3, 4-(4-chloro-2-fluorophenyl)-7-methyl-2-((2S)-2-(2-methyl-4-pyridinyl)-4-morpholinyl)pteridine]"
≤ 50,++++ (Emax>250),"Cc1nc2nc(N3CCO[C@@H](c4cnn(C)c4)C3)nc(-c3cc(F)c(F)cc3F)c2nc1C [Example 62, 6,7-dimethyl-2-((2S)-2-(1-methyl-1H-pyrazol-4-yl)-4-morpholinyl)-4-(2,4,5-trifluorophenyl)pteridine]"
500 to 3000,++ (Emax>100 and ≤150),"Cc1nc2cc([C@@H]3CCO[C@H](c4cnn(C)c4)C3)nc(-c3ccc(F)cc3F)c2nc1C [Example 257, 5-(2,4-difluorophenyl)-2,3-dimethyl-7-((2S,4R)-2-(1-methyl-1H-pyrazol-4-yl)tetrahydro-2H-pyran-4-yl)pyrido[3,4-b]pyrazine]"
≤ 50,+++ (Emax>150 and ≤250),"Cc1nc2nc(N3CCO[C@@H](c4cnn(C5CC5)c4)C3)nc(-c3ccc(F)cc3F)c2nc1C [Example 32, 2-((2S)-2-(1-cyclopropyl-1H-pyrazol-4-yl)-4-morpholinyl)-4-(2,4-difluorophenyl)-6,7-dimethylpteridine]"
≤ 50,++ (Emax>100 and ≤150),"Cc1cc([C@H]2CN(c3nc(C4CC5(C4)CC(F)(F)C5)c4nc(C)c(C)nc4n3)CCO2)ccn1 [Example 56, 4-(6,6-difluorospiro[3.3]heptan-2-yl)-6,7-dimethyl-2-((2S)-2-(2-methyl-4-pyridinyl)-4-morpholinyl)pteridine]"
≤ 50,++++ (Emax>250),"Cc1nc2cc(N3CCO[C@@H](c4cnn(C)c4)C3)cc(-c3ccc(Cl)cc3F)c2nc1C [Example 162, 5-(4-chloro-2-fluorophenyl)-2,3-dimethyl-7-((2S)-2-(1-methyl-1H-pyrazol-4-yl)-4-morpholinyl) quinoxaline]"
500 to 3000,+++ (Emax>150 and ≤250),"Cc1nc2nc(N3CCO[C@@H](c4cnn(C)c4)C3)nc(-c3ccc(F)cn3)c2nc1C [Example 292, (S)-4-(4-(5-fluoropyridin-2-yl)-6,7-dimethylpteridin-2-yl)-2-(1-methyl-1H-pyrazol-4-yl)morpholine]"
≤ 50,+ (Emax>45 and ≤100),"Cc1nc2nc(N3CCO[C@@H](c4cnn(C5CC5)c4)C3)nc([C@H]3C[C@@H](C(F)F)C3)c2nc1C [Example 47, 2-((2S)-2-(1-cyclopropyl-1H-pyrazol-4-yl)-4-morpholinyl)-4-(cis-3-(difluoromethyl)cyclobutyl)-6,7-dimethylpteridine]"
500 to 3000,+++ (Emax>150 and ≤250),"Cc1cc([C@H]2CN(c3nc4nc(C)cnc4c([C@H]4C[C@H](C(F)(F)F)C4)n3)CCO2)cnn1 [Example 279, (S)-4-(7-methyl-4-((1r,3S)-3-(trifluoromethyl)cyclobutyl)pteridin-2-yl)-2-(6-methylpyridazin-4-yl)morpholine]"
500 to 3000,+++ (Emax>150 and ≤250),"Cn1cc([C@H]2CN(c3cc4ncccc4c(-c4ccc(Cl)cc4F)n3)CCO2)cn1 [Example 234, (S)-4-(5-(4-chloro-2-fluorophenyl)-1,6-naphthyridin-7-yl)-2-(1-methyl-1H-pyrazol-4-yl)morpholine]"
≤ 50,+ (Emax>45 and ≤100),"Cc1cc([C@H]2CN(c3nc4nc(C)ccc4c([C@H]4C[C@H](C(F)(F)F)C4)n3)CCO2)ccn1 [Example 99, 7-methyl-2-((2S)-2-(2-methyl-4-pyridinyl)-4-morpholinyl)-4-(trans-3-(trifluoromethyl)cyclobutyl)pyrido[2,3-d]pyrimidine]"
50 to 500,++++ (Emax>250),"Cc1cnc2c(-c3ccc(Cl)cc3F)nc(N3CCO[C@@H](c4cnn(C5CC5)c4)C3)cc2n1 [Example 76, 5-(4-chloro-2-fluorophenyl)-7-((2S)-2-(1-cyclopropyl-1H-pyrazol-4-yl)-4-morpholinyl)-2-methylpyrido[3,4-b]pyrazine]"
≤ 50,+++ (Emax>150 and ≤250),"Cc1nc2nc([C@H]3CCO[C@@H](c4cnn(C)c4)C3)cc(-c3ccc(Cl)cc3F)c2nc1C (single isomer, unassigned) [Example 187]"
500 to 3000,+++ (Emax>150 and ≤250),"Cc1ccc(-c2nc([C@@H]3CCO[C@H](c4cnn(C)c4)C3)cc3nc(C)c(C)nc23)c(F)c1 [Example 258, 5-(2-fluoro-4-methylphenyl)-2,3-dimethyl-7-((2S,4R)-2-(1-methyl-1H-pyrazol-4-yl)tetrahydro-2H-pyran-4-yl)pyrido[3,4-b]pyrazine]"
500 to 3000,–,"Cc1cc([C@@H]2C[C@@H](c3nc(-c4ccc(F)cc4F)c4ccc(C)nc4n3)CCO2)ccn1 (single isomer, unassigned) [Example 221]"
≤ 50,++++ (Emax>250),"Cc1cc([C@@H]2CN(c3nc(-c4ccc(Cl)cc4F)c4cc(C)c(C)nc4n3)CCO2)cnn1 (single isomer, unassigned) [Example 105]"
500 to 3000,+++ (Emax>150 and ≤250),"Cc1ccc(-c2nc(N3CCO[C@@H](c4cnn(C)c4)C3)nc3nc(C)c(C)nc23)cn1 [Example 20, 6,7-dimethyl-2-((2S)-2-(1-methyl-1H-pyrazol-4-yl)-4-morpholinyl)-4-(6-methyl-3-pyridinyl)pteridine]"
500 to 3000,++++ (Emax>250),"Cc1ccc(-c2nc([C@H]3CCO[C@H](c4cnn(C)c4)C3)nc3nc(C)c(C)nc23)c(F)c1 [Example 264, 4-(2-fluoro-4-methylphenyl)-6,7-dimethyl-2-((2S,4S)-2-(1-methyl-1H-pyrazol-4-yl)tetrahydro-2H-pyran-4-yl)pteridine]"

SMILES,EC50 [nM],hTREM2 Emax
"Cc1cnc2c(-c3ccc(Cl)cc3F)nc(N3CCO[C@@H](c4cnn(C)c4)C3)nc2n1 [Example 1, 4-(4-chloro-2-fluorophenyl)-7-methyl-2-((2S)-2-(1-methyl-1H-pyrazol-4-yl)-4-morpholinyl) pteridine]",≤ 50,++++ (Emax>250)
